Reference: patent US20160303108A1, “NOVEL DOSAGE FORM AND FORMULATION OF ABEDITEROL” (Almirall, S.A., priority 2012, published 2016)
Marks after values point to notes of the source that are not given here.

How the values were obtained:
[1] = tested on: persistent asthmatic patients; assay: Clinical phase IIa single-dose cross-over study in persistent asthma (FEV1, safety, tolerability); assay type: in vivo, human
Source text: (§1) Clinical phase IIa study: A randomised, single dose, double-blind, double-dummy, 6 way complete cross-over, placebo and active comparator controlled, assesses the efficacy, safety and tolerability of single doses of abediterol administered once daily by inhalation compared to placebo and active comparator in persistent asthmatic patients.
(§2) Methods: 62 patients (Adult men and women aged 18-70 years) with a clinical diagnosis of persistent asthma, as defined by the 2011 GINA guideline, for at least 6 months prior to screening and with a FEV1 61-85% of the predicted normal values (according to Quanjer et al. 1993) were randomised to treatment sequences comprising a single-dose administration of abediterol (at metered nominal doses of 0.313, 0.625, 1.25 and 2.5 micrograms in the Genuair® device), one administration of salbutamol (at a metered nominal dose of 400 micrograms (100 micrograms×4 puffs) in the Ventolin Evohaler® device) and placebo (administered in both Genuair® and Ventolin Evohaler®) administered all of them by means of […]. The washout period between each administration was at least 7 days.

[2] = tested on: patients with stable moderate to severe chronic obstructive pulmonary disease (COPD); assay: Clinical phase IIa single-dose cross-over study in stable moderate to severe COPD (trough FEV1, safety, tolerability); assay type: in vivo, human; conditions: for Change from baseline in morning pre-dose (trough) FEV1 at Day 2: 23-24 h after administration
Source text: as §1, with “patients with stable moderate to severe chronic obstructive pulmonary disease (COPD).” for “persistent asthmatic patients.”
(§3) Methods: 63 patients (men and women aged ≧40 years) with a clinical diagnosis of stable moderate to severe COPD, as defined by the 2011 GOLD guideline, with no signs of an exacerbation within 6 weeks prior to the screening visit and with a FEV1 30-80% of the predicted normal values (according to Quanjer et al. 1993) were randomised to treatment sequences comprising a single-dose administration of abediterol (at a metered nominal dose of 0.625, 2.5, 5 and 10 micrograms in the Genuair® device), one administration of indacaterol (at a metered nominal dose of 150 micrograms once daily in the Onbrez Breezhaler® device) and placebo (administered in both Genuair® and Onbrez Breezhaler®). The washout period between each administration was at least 7 days. Lung function measurements included (by spirometry) trough FEV1. Trough FEV1 is defined as a main FEV1 value between 23 and 24 h after Investigational Medicinal Product (IMP) administration.

[3] = Measurement of the fine particle dose (FPD<5 μm, Anderson Cascade Impactor, Genuair inhaler); assay type: physicochemical
Method: The test on the aerodynamic assessment of the fine particles (FPD<5 μm) of the inhalation powder composition is carried out in combination with the Genuair® inhaler. The Fine Particle Fraction of abediterol free base was calculated on basis of the principles of the aerodynamic assessment of fine particles according to the Current European pharmacopoeia (Ph. Eur. Chapter 2.9.18) and USP <601> by the aid of aerodynamic impactor analyses using a modified Anderson Cascade Impactor (ACI), 60 L/min-configuration including pre-separator, stage −1, −0, and stage 1-7 (filter stage). The content of the active ingredient on each stage of the impactor is determined my means of HPLC.
The fine particle dose (FPD<5 μm) is calculated based on Ph. Eur. Chapter 2.9.18 and USP <601> by point to point interpolation per dosage. Linear point to point interpolation is done between the stages with a corresponding effective cut-off diameter which enclose the 5 μm mark.
To obtain the Fine Particle Dose, the cumulative percent value (y-value) at which the line of data plot crosses 5 μm mark is determined. […]
FPD [μg]=yFPD·F/100% • FPD=Fine particle dose<5 μm of the active ingredient per dosage [μg]. • yFPD=y-value of cumulative percentage of mass at a particle size of 5 μm evaluated by linear point to point interpolation [%]. • F=sum of mass on stage −1-stage 7 (filter) per dosage [μg].

[4] = Measurement of the delivered dose (collection tube, Genuair inhaler, HPLC); assay type: physicochemical
Method: The measurement of the delivered dose is carried out based on Ph. Eur. Chapter 2.9.18 and USP <601> using “collection tube” apparatus (CT). For this, the Genuair® inhaler is fitted to the Collection Tube via an adapter, the dosage key of the Genuair® inhaler is pressed and released and then 2 L or 4 L of air are sucked through the inhaler and the Collection Tube (the inspiratory flow rate through the inhaler was approx. 65 L/min at a pressure drop of 4 KPa). Subsequently, the inhalation powder delivered to the Collection Tube is extracted with solvent and analyzed using High Performance Liquid chromatography equipment (HPLC).

[5] = tested on: asthmatic and COPD patients; assay: Overall conclusion of the phase IIa studies in asthmatic and COPD patients; assay type: in vivo, human
Source text: as §2, §3

[6] = nominal dose of 1.25 micrograms abediterol free base
[7] = nominal dose of 2.5 micrograms abediterol free base

For `CC(C)(C)NCC(O)c1ccc(O)c(CO)c1` (centres unmarked) [Salbutamol, reference compound], the “Change from baseline in peak FEV1 on Day 1” value (“Change … on Day 1” below) ([1]; 400 μg (100 micrograms×4 puffs), Ventolin Evohaler, n = 58) was 555** ml.

In the case of `CCc1cc2c(cc1CC)CC(NC[C@H](O)c1ccc(O)c3[nH]c(=O)ccc13)C2` [Indacaterol, reference compound], the “Change from baseline in morning pre-dose (trough) FEV1 at Day 2” value (shortened to “Change from baseline in morning pre-dose”) ([2]; 150 μg, Onbrez Breezhaler, n = 68) is reported as 76* ml.

With `O=c1ccc2c([C@@H](O)CNCCCCCCOCC(F)(F)c3ccccc3)ccc(O)c2[nH]1` [Abediterol, 5-(2-{[6-(2,2-difluoro-2-phenylethoxy)hexyl]amino}-1(R)-hydroxyethyl)-8-hydroxyquinolin-2(1H)-one] the “Fine particle dose (FPD<5 μm) per dose” value [3, 6] was “about 0.45 micrograms”, the “Fine particle dose (FPD<5 μm) per dose” value [3, 7] was “about 1.0 micrograms” and the “Delivered dose per dose” value [4, 6] was “about 1.1 micrograms”. The “Delivered dose per dose” value [4, 7] was “about 2.3 micrograms”, the “Duration of bronchodilation effect” value ([5]; all dose levels tested) was “more than 24 h” and the “Changes on safety outcomes (HR, QTcF, glucose and potassium)” value ([5]; all doses tested) was “no overall clinically relevant changes”. For the same compound, the “Minimum dose having similar therapeutic effect to salbutamol and indacaterol” value ([5]; metered nominal dose, Genuair) was 0.625 micrograms, the “Tolerability (ECG, laboratory parameters, adverse events)” value ([2]; COPD patients, doses 0.625-10 micrograms, no dose-dependent effect) was “well tolerated” and the “Trough FEV1 compared with indacaterol 150 micrograms” value ([2]; doses of 2.5, 5 and 10 micrograms, statistically significant) was “greater trough FEV1”. The “Minimum therapeutic effective dose producing higher bronchodilatory effects when compared with indacaterol 150 micrograms” value ([2]; metered nominal dose, Genuair) was 2.5 micrograms, the “Change from baseline in morning pre-dose” value ([2]; single inhaled dose 0.625 μg, Genuair, n = 67) was 66* ml and the “Change from baseline in morning pre-dose” value ([2]; single inhaled dose 2.5 μg, Genuair, n = 66) was 168** ml. For the same compound, the “Change from baseline in morning pre-dose” value ([2]; single inhaled dose 5 μg, Genuair) was 198** ml, the “Change from baseline in morning pre-dose” value ([2]; single inhaled dose 10 μg, Genuair) was 223*** ml and the “Tolerability (ECG, laboratory parameters, adverse events)” value ([1]; asthma patients, doses 0.313-2.5 micrograms, no dose-dependent effect) was “well tolerated”. The “Bronchodilatory effect compared with salbutamol” value ([1]; doses of 1.25 and 2.5 micrograms vs salbutamol 400 micrograms) was “increased bronchodilatory effect”, the “Time to peak FEV1 at day 1” value ([1]; post-dose, all abediterol doses (0.313-2.5 micrograms)) was ≤ 4 h and the “Change … on Day 1” value ([1]; single inhaled dose 0.313 μg, Genuair, n = 60) was 477* ml. The “Change … on Day 1” value ([1]; single inhaled dose 0.625 μg, Genuair, n = 60) was 524* ml, the “Change … on Day 1” value ([1]; single inhaled dose 1.25 μg, Genuair, n = 60) was 573** ml and the “Change … on Day 1” value ([1]; single inhaled dose 2.5 μg, Genuair, n = 61) was 608*** ml.
